Results as given in article PMC4454357 (Archives of biochemistry and biophysics, 2015).
Like-named read-outs stand apart in the source and are kept apart here.

What was measured:
[1] = target: T1, AhR (Rattus norvegicus, UniProt P41738); assay: AhR-dependent luciferase reporter gene assay, rat hepatoma H4L7.5c2
T1 sequence (P41738 10-853): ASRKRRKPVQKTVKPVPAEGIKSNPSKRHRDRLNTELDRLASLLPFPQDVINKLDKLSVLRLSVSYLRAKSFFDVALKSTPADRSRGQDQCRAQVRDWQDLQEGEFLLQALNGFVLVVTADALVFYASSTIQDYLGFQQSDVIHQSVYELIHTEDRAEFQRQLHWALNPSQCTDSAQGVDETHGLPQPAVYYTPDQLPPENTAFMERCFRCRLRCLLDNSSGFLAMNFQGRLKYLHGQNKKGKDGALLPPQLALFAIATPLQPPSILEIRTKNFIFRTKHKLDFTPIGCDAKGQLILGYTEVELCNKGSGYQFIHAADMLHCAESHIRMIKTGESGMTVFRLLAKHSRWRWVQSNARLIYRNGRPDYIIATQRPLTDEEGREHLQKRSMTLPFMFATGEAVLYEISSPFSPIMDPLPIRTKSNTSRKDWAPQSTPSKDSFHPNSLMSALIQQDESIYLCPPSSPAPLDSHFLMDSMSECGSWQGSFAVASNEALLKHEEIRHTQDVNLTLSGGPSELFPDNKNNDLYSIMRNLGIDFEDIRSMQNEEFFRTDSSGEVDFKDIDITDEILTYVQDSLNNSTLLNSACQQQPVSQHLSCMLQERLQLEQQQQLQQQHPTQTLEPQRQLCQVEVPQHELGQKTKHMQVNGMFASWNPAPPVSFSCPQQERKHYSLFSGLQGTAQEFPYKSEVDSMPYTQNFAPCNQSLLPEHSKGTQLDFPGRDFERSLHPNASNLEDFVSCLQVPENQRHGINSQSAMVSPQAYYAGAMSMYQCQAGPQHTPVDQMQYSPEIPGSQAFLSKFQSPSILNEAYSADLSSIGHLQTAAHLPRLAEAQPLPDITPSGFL

[2] = target: T2, AhR (Cavia porcellus, UniProt Q6J287)
T2 sequence (Q6J287 1-846): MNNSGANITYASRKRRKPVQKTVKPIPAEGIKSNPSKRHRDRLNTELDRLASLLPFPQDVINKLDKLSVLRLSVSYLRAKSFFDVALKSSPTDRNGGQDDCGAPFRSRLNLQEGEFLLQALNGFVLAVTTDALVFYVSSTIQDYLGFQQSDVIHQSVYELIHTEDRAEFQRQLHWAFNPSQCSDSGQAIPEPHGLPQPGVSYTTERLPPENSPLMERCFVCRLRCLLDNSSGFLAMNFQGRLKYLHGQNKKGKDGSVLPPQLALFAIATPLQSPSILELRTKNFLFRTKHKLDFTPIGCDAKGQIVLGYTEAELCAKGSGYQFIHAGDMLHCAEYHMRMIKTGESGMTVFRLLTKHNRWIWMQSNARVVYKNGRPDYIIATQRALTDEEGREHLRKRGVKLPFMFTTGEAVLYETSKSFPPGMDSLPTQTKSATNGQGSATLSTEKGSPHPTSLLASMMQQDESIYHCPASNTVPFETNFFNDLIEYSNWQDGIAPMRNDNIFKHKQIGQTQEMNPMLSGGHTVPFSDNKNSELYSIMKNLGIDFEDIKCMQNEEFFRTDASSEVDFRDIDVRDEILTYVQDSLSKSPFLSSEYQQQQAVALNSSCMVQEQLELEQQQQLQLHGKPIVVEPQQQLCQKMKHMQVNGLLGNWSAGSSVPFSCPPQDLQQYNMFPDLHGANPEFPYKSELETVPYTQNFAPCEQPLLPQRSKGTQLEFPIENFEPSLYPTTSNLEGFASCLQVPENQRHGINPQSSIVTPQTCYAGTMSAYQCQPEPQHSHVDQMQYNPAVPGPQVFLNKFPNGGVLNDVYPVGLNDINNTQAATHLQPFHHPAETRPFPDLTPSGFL

[3] = target: T1, AhR
[4] = target: T3, AhR (Homo sapiens, UniProt P35869)
T3 sequence (P35869 11-848): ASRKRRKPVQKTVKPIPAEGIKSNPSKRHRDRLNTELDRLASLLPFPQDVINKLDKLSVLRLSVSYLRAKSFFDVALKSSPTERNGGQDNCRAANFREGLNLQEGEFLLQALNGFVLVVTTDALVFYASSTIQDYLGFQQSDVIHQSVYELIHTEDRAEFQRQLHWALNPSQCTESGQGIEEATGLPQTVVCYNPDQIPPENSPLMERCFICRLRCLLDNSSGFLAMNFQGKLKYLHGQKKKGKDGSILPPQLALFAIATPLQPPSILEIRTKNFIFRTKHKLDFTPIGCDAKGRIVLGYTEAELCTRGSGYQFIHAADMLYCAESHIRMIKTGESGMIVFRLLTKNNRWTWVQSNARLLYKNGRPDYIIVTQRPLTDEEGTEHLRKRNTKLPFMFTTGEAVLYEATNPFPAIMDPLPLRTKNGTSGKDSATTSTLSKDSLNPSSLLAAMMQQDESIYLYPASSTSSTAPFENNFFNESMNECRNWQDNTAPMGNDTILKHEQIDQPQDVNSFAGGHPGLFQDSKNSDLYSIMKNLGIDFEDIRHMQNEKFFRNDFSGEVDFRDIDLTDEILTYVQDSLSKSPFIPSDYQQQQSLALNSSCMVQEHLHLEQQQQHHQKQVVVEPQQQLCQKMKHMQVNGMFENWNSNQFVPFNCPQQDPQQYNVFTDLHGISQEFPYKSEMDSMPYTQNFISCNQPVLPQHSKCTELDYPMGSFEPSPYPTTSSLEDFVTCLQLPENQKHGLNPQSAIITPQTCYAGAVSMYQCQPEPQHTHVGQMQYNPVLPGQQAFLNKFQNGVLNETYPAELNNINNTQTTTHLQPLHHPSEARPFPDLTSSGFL

[5] = target: T2, AhR; remark: listed apart in the source
[6] = target: T3, AhR; assay: AhR-dependent luciferase reporter gene assay, human hepatoma HG2L7.5c1; conditions: for difference in relative potency among the cell lines studied: human, mouse, rat and guinea pig cell lines compared
[7] = target: AhR (Mus musculus, UniProt P30561); assay: AhR-dependent luciferase reporter gene assay, mouse hepatoma H1L7.5c3; conditions: mouse cell line
Chain of AhR (Mus musculus, UniProt P30561) (P30561 10-848): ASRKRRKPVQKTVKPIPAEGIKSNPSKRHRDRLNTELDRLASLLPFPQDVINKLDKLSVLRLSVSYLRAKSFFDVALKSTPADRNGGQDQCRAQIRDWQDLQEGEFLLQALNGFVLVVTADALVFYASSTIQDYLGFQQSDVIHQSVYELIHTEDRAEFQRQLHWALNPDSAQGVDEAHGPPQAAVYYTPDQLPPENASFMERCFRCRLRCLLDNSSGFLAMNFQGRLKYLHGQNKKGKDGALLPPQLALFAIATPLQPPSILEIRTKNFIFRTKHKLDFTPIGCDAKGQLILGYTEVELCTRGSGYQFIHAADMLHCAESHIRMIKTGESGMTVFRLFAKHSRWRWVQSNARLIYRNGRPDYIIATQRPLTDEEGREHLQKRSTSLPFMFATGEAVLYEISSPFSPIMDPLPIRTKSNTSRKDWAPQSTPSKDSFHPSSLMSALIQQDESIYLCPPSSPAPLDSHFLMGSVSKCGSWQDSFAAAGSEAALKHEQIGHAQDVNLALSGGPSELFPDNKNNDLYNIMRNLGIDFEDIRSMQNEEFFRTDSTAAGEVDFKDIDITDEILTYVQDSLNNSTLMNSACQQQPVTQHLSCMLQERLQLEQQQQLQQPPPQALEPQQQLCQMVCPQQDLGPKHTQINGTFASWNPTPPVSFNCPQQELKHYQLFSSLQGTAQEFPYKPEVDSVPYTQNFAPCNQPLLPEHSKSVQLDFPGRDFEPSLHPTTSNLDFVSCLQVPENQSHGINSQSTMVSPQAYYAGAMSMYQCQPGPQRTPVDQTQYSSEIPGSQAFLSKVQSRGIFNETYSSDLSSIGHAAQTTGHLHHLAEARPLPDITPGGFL

[8] = test system: AhR; assay: as above; conditions: EC50 mouse versus rat cell lines
[9] = target: T4, guinea pig hepatic cytosolic AhR (Cavia porcellus, UniProt Q6J287); assay: [3H]TCDD competitive ligand binding, hydroxyapatite binding assay; conditions: 2 nM [3H]TCDD, 1 h, room temperature, guinea pig hepatic cytosol
T4 sequence (Q6J287 1-846): T2 sequence (Q6J287 1-846)

[10] = read-out: Relative potency (EC50) as activators of AhR-dependent reporter gene expression, Human cell line HG2L7.5c1, 6 h, mean of triplicate concentration response analysis

Compound: O=Cc1c2[nH]c3ccccc3c2cc2[nH]c3ccccc3c12 [FICZ, 6-formyl-indolo[3,2-b]carbazole]
- EC50 [1]: 0.078 nM

Compound: O=C1Nc2ccccc2/C1=C1/Nc2ccccc2C1=O [Indirubin, indirubin]
- EC50 [1]: 0.94 nM
- EC50 [2]: 0.95 nM

Compound: O=Cc1c(Cc2c[nH]c3ccccc23)[nH]c2ccccc12 [Malassezin, malassezin]
- EC50 [3]: 56 nM
- EC50 [4]: 11.1 nM
- EC50 [5]: 276 nM
- relative inducing potency difference between the human and mouse cell lines ([6]; EC50 human versus mouse hepatoma cells): ~ 26 fold

Compound: O=C(c1c[nH]c2ccccc12)c1nccc2c1[nH]c1ccccc12 [Pityriacitrin, pityriacitrin]
- EC50 [3]: 4.3 nM
- EC50 [4]: 4.9 nM
- EC50 [5]: 4.3 nM
- difference in relative potency among the cell lines studied [6]: lowest degree of difference

Compound: Clc1cc2c(cc1Cl)Oc1cc(Cl)c(Cl)cc1O2 [TCDD, 2,3,7,8-tetrachlorodibenzo-p-dioxin, reference compound]
- EC50 [1]: 0.1 nM
- EC50 [6]: 0.53 nM
- EC50 [2]: 0.1 nM

Compound: O=C1c2ccccc2-n2c1nc1ccccc1c2=O [Tryptanthrin, tryptanthrin]
- EC50 [1]: 946 nM
- EC50 [2]: 181 nM

Compound: indolo[3,2-b]carbazole [ICZ]
- EC50 [7]: 0.009 nM
- difference in EC50 between the mouse and rat cell lines [8]: ~ 109 fold
- EC50 [6, 10]: 0.6 nM

Compound: pityriazepin
- displacement of [3H]TCDD [9]: displaced [^3H]TCDD from guinea pig hepatic cytosol in a concentration-dependent manner
- difference in relative potency among the cell lines studied [6]: lowest degree of difference
- EC50 [6, 10]: 5 nM
